Experiment: mn = molality of the nth substance listed, in mol/kg
Settings: Liquid, Vibrating tube method

[Ca+2].[Cl-].[Cl-] [calcium chloride] + CCO
Settings	mass density [kg/m3]
298.15 K, 210 kPa, m1 = 1.55	901.58
298.15 K, 260 kPa, m1 = 1.266	881.44
298.15 K, 280 kPa, m1 = 0.1743	800.14
298.15 K, 480 kPa, m1 = 0.09327	793.4
298.15 K, 670 kPa, m1 = 0.9896	861.73
298.15 K, 1020 kPa, m1 = 0.4379	820.65
298.15 K, 1170 kPa, m1 = 0.6899	839.86
298.15 K, 5010 kPa, m1 = 0.6899	843.06
298.15 K, 5020 kPa, m1 = 1.55	905.41
298.15 K, 5030 kPa, m1 = 0.4379	824.03
298.15 K, 5060 kPa, m1 = 0.09327	797.34
298.15 K, 5060 kPa, m1 = 1.266	885.32
298.15 K, 6330 kPa, m1 = 0.9896	866.36
298.15 K, 6580 kPa, m1 = 0.1743	804.98
298.15 K, 10030 kPa, m1 = 0.09327	801.45
298.15 K, 10410 kPa, m1 = 1.55	909.48
298.15 K, 10450 kPa, m1 = 0.4379	828.43
298.15 K, 10830 kPa, m1 = 0.9896	869.87
298.15 K, 10850 kPa, m1 = 1.266	889.78
298.15 K, 11050 kPa, m1 = 0.6899	847.88
298.15 K, 11330 kPa, m1 = 0.1743	808.85
298.15 K, 14860 kPa, m1 = 1.266	892.71
298.15 K, 15090 kPa, m1 = 0.9896	873.05
298.15 K, 15120 kPa, m1 = 0.6899	850.99
298.15 K, 15240 kPa, m1 = 1.55	912.94
298.15 K, 15470 kPa, m1 = 0.09327	805.77
298.15 K, 15480 kPa, m1 = 0.4379	832.33
298.15 K, 15720 kPa, m1 = 0.1743	812.29
298.15 K, 20020 kPa, m1 = 0.9896	876.57
298.15 K, 20080 kPa, m1 = 1.266	896.35
298.15 K, 20130 kPa, m1 = 0.6899	854.64
298.15 K, 20260 kPa, m1 = 1.55	916.34
298.15 K, 20460 kPa, m1 = 0.4379	836.02
298.15 K, 20490 kPa, m1 = 0.1743	815.89
298.15 K, 20640 kPa, m1 = 0.09327	809.69
298.15 K, 25010 kPa, m1 = 1.55	919.38
298.15 K, 25130 kPa, m1 = 0.9896	880.03
298.15 K, 25310 kPa, m1 = 0.6899	858.24
298.15 K, 25390 kPa, m1 = 0.09327	813.15
298.15 K, 25410 kPa, m1 = 1.266	899.86
298.15 K, 25750 kPa, m1 = 0.4379	839.75
298.15 K, 25820 kPa, m1 = 0.1743	819.73
298.15 K, 30060 kPa, m1 = 1.266	902.74
298.15 K, 30110 kPa, m1 = 0.9896	883.22
298.15 K, 30120 kPa, m1 = 0.6899	861.41
298.15 K, 30190 kPa, m1 = 0.09327	816.48
298.15 K, 30420 kPa, m1 = 1.55	922.62
298.15 K, 30640 kPa, m1 = 0.4379	843.03
298.15 K, 31460 kPa, m1 = 0.1743	823.58
298.15 K, 34210 kPa, m1 = 0.6899	863.97
298.15 K, 35050 kPa, m1 = 1.55	925.22
298.15 K, 35340 kPa, m1 = 0.1743	826.11
298.15 K, 35510 kPa, m1 = 0.9896	886.47
298.15 K, 35640 kPa, m1 = 0.09327	820.09
298.15 K, 35830 kPa, m1 = 0.4379	846.33
298.15 K, 35910 kPa, m1 = 1.266	906.14
298.15 K, 39770 kPa, m1 = 0.6899	867.27
298.15 K, 39860 kPa, m1 = 0.9896	888.93
298.15 K, 39920 kPa, m1 = 0.09327	822.78
298.15 K, 39960 kPa, m1 = 1.55	927.8
298.15 K, 39970 kPa, m1 = 0.4379	848.83
298.15 K, 39980 kPa, m1 = 1.266	908.34
298.15 K, 40180 kPa, m1 = 0.1743	829.13
323.15 K, 150 kPa, m1 = 0.09327	771.32
323.15 K, 240 kPa, m1 = 0.1743	777.83
323.15 K, 310 kPa, m1 = 1.266	857.3
323.15 K, 450 kPa, m1 = 0.4379	798.42
323.15 K, 520 kPa, m1 = 1.55	876.88
323.15 K, 1060 kPa, m1 = 0.6899	817.18
323.15 K, 1570 kPa, m1 = 0.9896	839.21
323.15 K, 4980 kPa, m1 = 0.4379	802.82
323.15 K, 5060 kPa, m1 = 0.1743	782.74
323.15 K, 5070 kPa, m1 = 1.266	861.31
323.15 K, 5120 kPa, m1 = 1.55	881.08
323.15 K, 5160 kPa, m1 = 0.9896	842.61
323.15 K, 5240 kPa, m1 = 0.09327	776.5
323.15 K, 5300 kPa, m1 = 0.6899	821.26
323.15 K, 9780 kPa, m1 = 0.4379	807.29
323.15 K, 10060 kPa, m1 = 1.266	865.4
323.15 K, 10180 kPa, m1 = 0.6899	825.76
323.15 K, 10340 kPa, m1 = 0.09327	781.44
323.15 K, 10480 kPa, m1 = 0.1743	787.98
323.15 K, 10740 kPa, m1 = 1.55	885.92
323.15 K, 10890 kPa, m1 = 0.9896	847.78
323.15 K, 15020 kPa, m1 = 1.55	889.39
323.15 K, 15060 kPa, m1 = 0.4379	811.96
323.15 K, 15370 kPa, m1 = 0.6899	830.3
323.15 K, 15410 kPa, m1 = 1.266	869.66
323.15 K, 15420 kPa, m1 = 0.9896	851.64
323.15 K, 15620 kPa, m1 = 0.1743	792.67
323.15 K, 15780 kPa, m1 = 0.09327	786.43
323.15 K, 19980 kPa, m1 = 1.266	873.2
323.15 K, 20040 kPa, m1 = 0.4379	816.13
323.15 K, 20060 kPa, m1 = 0.9896	855.4
323.15 K, 20420 kPa, m1 = 1.55	893.5
323.15 K, 20640 kPa, m1 = 0.1743	796.99
323.15 K, 20640 kPa, m1 = 0.6899	834.66
323.15 K, 20980 kPa, m1 = 0.09327	790.93
323.15 K, 24860 kPa, m1 = 1.266	876.87
323.15 K, 24870 kPa, m1 = 0.4379	819.96
323.15 K, 25080 kPa, m1 = 0.9896	859.23
323.15 K, 25310 kPa, m1 = 1.55	896.97
323.15 K, 25390 kPa, m1 = 0.6899	838.36
323.15 K, 25680 kPa, m1 = 0.09327	794.77
323.15 K, 25870 kPa, m1 = 0.1743	801.22
323.15 K, 30020 kPa, m1 = 0.4379	823.82
323.15 K, 30070 kPa, m1 = 1.266	880.67
323.15 K, 30140 kPa, m1 = 1.55	900.16
323.15 K, 30180 kPa, m1 = 0.6899	841.89
323.15 K, 30380 kPa, m1 = 0.1743	804.64
323.15 K, 30390 kPa, m1 = 0.09327	798.4
323.15 K, 30450 kPa, m1 = 0.9896	863.05
323.15 K, 35150 kPa, m1 = 0.4379	827.42
323.15 K, 35160 kPa, m1 = 1.266	884.27
323.15 K, 35210 kPa, m1 = 0.9896	866.21
323.15 K, 35620 kPa, m1 = 1.55	903.49
323.15 K, 35760 kPa, m1 = 0.6899	845.73
323.15 K, 35870 kPa, m1 = 0.09327	802.35
323.15 K, 35920 kPa, m1 = 0.1743	808.56
323.15 K, 39760 kPa, m1 = 0.4379	830.46
323.15 K, 39860 kPa, m1 = 0.09327	805.04
323.15 K, 39870 kPa, m1 = 1.266	887.49
323.15 K, 39940 kPa, m1 = 0.1743	811.21
323.15 K, 39940 kPa, m1 = 0.6899	848.42
323.15 K, 39960 kPa, m1 = 0.9896	869.15
323.15 K, 39980 kPa, m1 = 1.55	905.92
348.15 K, 270 kPa, m1 = 1.266	833.32
348.15 K, 310 kPa, m1 = 1.55	852.87
348.15 K, 580 kPa, m1 = 0.9896	814.32
348.15 K, 620 kPa, m1 = 0.4379	774.92
348.15 K, 750 kPa, m1 = 0.09327	748.39
348.15 K, 750 kPa, m1 = 0.6899	792.97
348.15 K, 890 kPa, m1 = 0.1743	755.18
348.15 K, 5060 kPa, m1 = 0.9896	819.3
348.15 K, 5060 kPa, m1 = 1.266	837.99
348.15 K, 5080 kPa, m1 = 0.6899	797.87
348.15 K, 5090 kPa, m1 = 0.1743	760.16
348.15 K, 5130 kPa, m1 = 0.4379	780.06
348.15 K, 5210 kPa, m1 = 1.55	858.12
348.15 K, 5620 kPa, m1 = 0.09327	754.25
348.15 K, 10160 kPa, m1 = 1.55	863.08
348.15 K, 10240 kPa, m1 = 0.4379	785.57
348.15 K, 10310 kPa, m1 = 0.9896	824.81
348.15 K, 10410 kPa, m1 = 0.6899	803.58
348.15 K, 10450 kPa, m1 = 1.266	843.06
348.15 K, 10480 kPa, m1 = 0.1743	766.21
348.15 K, 10820 kPa, m1 = 0.09327	760.15
348.15 K, 14890 kPa, m1 = 0.6899	808.11
348.15 K, 15210 kPa, m1 = 0.9896	829.63
348.15 K, 15310 kPa, m1 = 0.4379	790.73
348.15 K, 15380 kPa, m1 = 0.09327	765.02
348.15 K, 15680 kPa, m1 = 1.55	868.22
348.15 K, 15760 kPa, m1 = 0.1743	771.77
348.15 K, 15840 kPa, m1 = 1.266	847.95
348.15 K, 19980 kPa, m1 = 1.266	851.59
348.15 K, 20060 kPa, m1 = 0.6899	813.01
348.15 K, 20430 kPa, m1 = 0.09327	770.09

— the NIST ThermoML archive (doi:10.1021/je800234h)
